A short description of the data set: Dynamic vapor sorption (DVS) analysis. It counts as physicochemical. The note with it: over 2 cycles tested; consistent with loss of AcOH upon dehumidification, confirmed by 1H NMR after DVS. As to the method: XRPD analysis confirmed that Form C9 is crystalline. […] (FIG. 10c). Decomposition occurs at about 220° C., as indicated by the large weight loss observed by TGA around this temperature. […] This was confirmed by ^1H NMR spectroscopy after DVS analysis. KF titration of Form C9 indicated the presence of about 2.3% water.
A hot solution of cabazitaxel (0.1 g) in 1 mL of AcOH and 0.5 mL of H2O was slowly cooled to room temperature. The mixture was filtered and the resulting solids were dried in a vacuum oven to give cabazitaxel Form C9 as a white solid (melting point: 152.5-159.3° C.). […] This was consistent with a loss of AcOH upon dehumification, which was confirmed by ^1H NMR spectroscopic analysis after the DVS test.

Data on one compound can be found in patent US8735611B2, “Crystalline forms of cabazitaxel” (ScinoPharm Taiwan, Ltd., priority 2011, dated 2014).

As to `CO[C@H]1C(=O)[C@]2(C)[C@@H](OC)C[C@H]3OC[C@@]3(OC(C)=O)[C@H]2[C@H](OC(=O)c2ccccc2)[C@]2(O)C[C@H](OC(=O)[C@H](O)[C@@H](NC(=O)OC(C)(C)C)c3ccccc3)C(C)=C1C2(C)C` [Form C9, cabazitaxel], the “weight loss and gain upon changing humidity (DVS)” value is “non-perfectly reversible weight loss and gain upon changing humidity”.
